Eight compounds from ChEMBL document CHEMBL1201862, “PubChem BioAssay data set” (2004) can be followed below.

Test systems include SK-MEL-5; SN12C; Hs-578T; SK-OV-3; HOP-62; UACC-62; TK-10; NCI-H522; RPMI-8226; NCI-H226; EKVX; CAKI-1; IGROV-1; SW-620; SR; HCT-15; M14; HCT-116; SK-MEL-28.
Assay in all cases: growth of human tumour cells (NCI), 48 h

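In this assay, cells in 96-well plates receive the compound at five concentrations for 48 hours. Endpoints are linearly interpolated between the surrounding concentrations. The concentration for 50% growth inhibition is given as GI50.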 Calls of active or inactive are those of the source. Rule as the data show it: active = GI50 up to about 1.1 µM and inactive = higher.

Turning to `N#CC(CC(=O)O)=C(c1ccccc1)c1ccccc1`, the GI50 in the experiment on SK-MEL-5 is > 100 µM (inactive); with SN12C, > 100 µM (inactive); in the experiment with Hs-578T, 70.1 µM (inactive); in the experiment with SK-OV-3 it was > 100 µM (inactive); in the experiment on HOP-62, > 100 µM (inactive); in the experiment on UACC-62, > 100 µM (inactive). Further, the GI50 with TK-10, in the experiment with NCI-H522, with RPMI-8226, in the experiment with NCI-H226, in the experiment with EKVX and in the experiment with CAKI-1 was > 100 µM (inactive) each time. Besides, the GI50 with IGROV-1 was > 100 µM (inactive); with SW-620, > 100 µM (inactive); with SR it was > 100 µM (inactive); in the experiment with HCT-15 it was above 100 µM; in the experiment on M14, > 100 µM (inactive); in the experiment with HCT-116 it was > 100 µM (inactive). Also, the GI50 in the experiment on SK-MEL-28 was > 100 µM (inactive).

With `C(=NCCN1CCOCC1)=NC1CCCCC1`, the GI50 with SK-MEL-5, with SN12C, in the experiment on Hs-578T, in the experiment on SK-OV-3, in the experiment with HOP-62 and in the experiment with UACC-62 was > 100 µM (inactive) in each case. In addition, the GI50 in the experiment with TK-10, with NCI-H522, in the experiment on RPMI-8226, with NCI-H226, with EKVX and in the experiment with CAKI-1 was > 100 µM (inactive) in each case. For the same compound, the GI50 in the experiment on IGROV-1 was > 100 µM (inactive); in the experiment with SW-620, > 100 µM (inactive); in the experiment on SR, 12.4 µM (inactive); with HCT-15, above 100 µM; in the experiment with M14, > 100 µM (inactive); with HCT-116, > 100 µM (inactive). For the same compound, the GI50 in the experiment on SK-MEL-28 is > 100 µM (inactive).

On to `COc1ccccc1N1C(=O)CC(=O)N(C(=O)CCCCCCCCC(=O)N2C(=O)CC(=O)N(c3ccccc3OC)C2=S)C1=S`, for which the GI50 with SK-MEL-5 is 52 µM (inactive); with SN12C, > 100 µM (inactive); with Hs-578T, 69 µM (inactive); in the experiment on SK-OV-3 it was > 100 µM (inactive); in the experiment with HOP-62, > 100 µM (inactive); in the experiment with UACC-62 it was 41.8 µM (inactive). The GI50 in the experiment with TK-10 was > 100 µM (inactive); in the experiment with NCI-H522, 47.3 µM (inactive); in the experiment with RPMI-8226, 35.7 µM (inactive); with NCI-H226 it was > 100 µM (inactive); with EKVX it was 51.8 µM (inactive); in the experiment with CAKI-1, > 100 µM (inactive). The GI50 in the experiment on SW-620 is > 100 µM (inactive); with SR, 28.4 µM (inactive); with HCT-15, 96.4 µM; in the experiment on M14, 69.7 µM (inactive); with HCT-116 it was 56.9 µM (inactive); in the experiment with SK-MEL-28, > 100 µM (inactive).

With `CO/N=C(\C)c1cccc(Nc2c3ccccc3nc3occc23)c1`, the GI50 was 6.22 µM (inactive) in the experiment on SK-MEL-5; 16 µM (inactive) in the experiment on SN12C; 17 µM (inactive) in the experiment on Hs-578T; 14.4 µM (inactive) in the experiment on SK-OV-3; 6.37 µM (inactive) with HOP-62; 7.55 µM (inactive) in the experiment with UACC-62. The GI50 in the experiment with TK-10 is 20.4 µM (inactive); with NCI-H522 it was 3.66 µM (inactive); in the experiment with RPMI-8226 it was 4.36 µM (inactive); with NCI-H226, 12 µM (inactive); with EKVX, 11.1 µM (inactive); in the experiment with CAKI-1, 4.82 µM (inactive). For the same compound, the GI50 in the experiment on IGROV-1 was 5.05 µM (inactive); with SR it was 3.33 µM (inactive); in the experiment with HCT-15 it was 6.21 µM; with M14, 8.97 µM (inactive); in the experiment with HCT-116 it was 8.34 µM (inactive); in the experiment on SK-MEL-28, 5.35 µM (inactive).

Turning to `CCn1c(SCC(=O)NNC(=S)NC)nc2ccccc2c1=O`, the GI50 with SK-MEL-5, with SN12C, in the experiment with Hs-578T, in the experiment on SK-OV-3, in the experiment on HOP-62 and in the experiment with UACC-62 was > 100 µM (inactive) each time. Further, the GI50 in the experiment on TK-10 was 49 µM (inactive); in the experiment on NCI-H522, > 100 µM (inactive); in the experiment with RPMI-8226, 53 µM (inactive); in the experiment on NCI-H226, > 100 µM (inactive); in the experiment with EKVX, > 100 µM (inactive); with CAKI-1, 24.1 µM (inactive). The GI50 with IGROV-1 is > 100 µM (inactive); in the experiment on SW-620 it was > 100 µM (inactive); in the experiment with SR, > 100 µM (inactive); in the experiment on HCT-15 it was above 100 µM; in the experiment on M14, > 100 µM (inactive); in the experiment with HCT-116 it was > 100 µM (inactive). Also, the GI50 with SK-MEL-28 is > 100 µM (inactive).

For the compound `CCn1c(SCC(=O)N/N=C2\SCC(=O)N2c2ccc(C)cc2)nc2ccccc2c1=O`, the GI50 is 22.9 µM (inactive) with SK-MEL-5; 27 µM (inactive) with SN12C; 16.4 µM (inactive) with Hs-578T; 19.7 µM (inactive) with SK-OV-3; 21.7 µM (inactive) in the experiment on HOP-62; 15.3 µM (inactive) in the experiment on UACC-62. Also, the GI50 is 15 µM (inactive) with TK-10; 22.4 µM (inactive) with NCI-H522; 18.5 µM (inactive) in the experiment with RPMI-8226; 23.8 µM (inactive) with NCI-H226; 22.4 µM (inactive) with EKVX; 18.7 µM (inactive) in the experiment on CAKI-1. In addition, the GI50 in the experiment on IGROV-1 is 21.6 µM (inactive); in the experiment with SW-620 it was 33.7 µM (inactive); in the experiment with SR, 17.4 µM (inactive); in the experiment with HCT-15, 32.1 µM; in the experiment with M14 it was 36.1 µM (inactive); with HCT-116, 20 µM (inactive). For the same compound, the GI50 with SK-MEL-28 was 20.6 µM (inactive).

Turning to `c1cc2nnc1SCCCSc1ccc(nn1)SCCCSc1ccc(nn1)SCCCS2`, the GI50 is > 100 µM (inactive) in the experiment with SK-MEL-5; > 100 µM (inactive) in the experiment on SN12C; 32.4 µM (inactive) in the experiment with Hs-578T; > 100 µM (inactive) with SK-OV-3; 39.6 µM (inactive) in the experiment on HOP-62; > 100 µM (inactive) in the experiment on UACC-62. For the same compound, the GI50 in the experiment with TK-10, in the experiment with NCI-H522, in the experiment with RPMI-8226, in the experiment with NCI-H226, in the experiment on CAKI-1 and with IGROV-1 was > 100 µM (inactive) in each case. The GI50 in the experiment on SW-620 was > 100 µM (inactive); in the experiment with SR it was > 100 µM (inactive); in the experiment with HCT-15, above 100 µM; in the experiment on M14, > 100 µM (inactive); in the experiment with HCT-116, > 100 µM (inactive); with SK-MEL-28 it was > 100 µM (inactive).

`COc1cc(N(CCC#N)CCC#N)ccc1C(=N/NC(=O)c1cc(Br)ccc1O)/N=N/c1ccccc1`: the GI50 in the experiment on SK-MEL-5 is 20.1 µM (inactive); with SN12C it was 31.8 µM (inactive); with Hs-578T, 61.2 µM (inactive); in the experiment with SK-OV-3, 31.1 µM (inactive); with HOP-62 it was 24 µM (inactive); in the experiment on UACC-62 it was 20 µM (inactive). The GI50 was 33.1 µM (inactive) with TK-10; 23.4 µM (inactive) in the experiment on NCI-H522; 17.1 µM (inactive) in the experiment with RPMI-8226; 33.2 µM (inactive) with NCI-H226; 21.1 µM (inactive) in the experiment with EKVX; 27 µM (inactive) with CAKI-1. The GI50 with IGROV-1 is 13.8 µM (inactive); in the experiment with SW-620 it was 31.6 µM (inactive); in the experiment with SR it was 16.9 µM (inactive); in the experiment on HCT-15 it was 24.7 µM; in the experiment on M14 it was 29 µM (inactive); with HCT-116, 21.5 µM (inactive). Besides, the GI50 with SK-MEL-28 is 27.9 µM (inactive).
